Data set [1] relates to lymphocytic leukemia P388/0. Kind of data set: Lymphocytic Leukemia P388/0 Test. The settings on record: ip days 1, 5, 9; for LD20: doses on a mg/kg basis; for T/C × 100% (Excluding 30 Day Survivors): median survival time treated/control, at the optimal dose of the compound (Table I), active if ≥120%. The arrangement: LD20: unit: mg/kg. In kind it is in vivo, mouse (CD2-F1). The text has this: (§1) Methods for evaluating the antitumor activity of these compounds are essentially those used in the Tumor Panel by the Developmental Therapeutics Program, Division of Cancer Treatment, National Cancer Institute, A. Goldin, et al., Methods in Cancer Research, Vol. XVI, p.165, Academic Press (1979). Some modifications, in dose level and schedule have been made to increase the testing efficiency.
(§2) CD2-F1 mice, of the same sex, weighing 20±3 g are used for this test. Control and test animals are injected intraperitoneally with a suspension of ~10^6 viable P388/0 tumor cells on day 0. In each test, several dose levels which bracket the LD20 of the compound are evaluated; each dose level group contains six animals. The test compounds are prepared either in physiologic saline containing 0.05% Tween 80 or distilled water containing 5% dextrose and are administered intraperitoneally on days 1, 5, and 9 relative to tumor implant. Doses are on a mg/kg basis according to individual animals' body weights. The day of death for each animal is recorded, the median identified for each group and the ratios of median survival time for treated (T)/control (C) Groups are calculated. The criterion for activity is T/C×100≥120%.

The nature of data set [2]: Antibacterial screening against Mycoplasma smegmatis. The data set is classed as cell-based. An excerpt:
(§3) Antibacterial test against Mycoplasma smegmatis (S3264) and Streptococcus pyogenes (CN10) was done with slight modifications using standard agar dilution assays as outlined in Manual of Clinical Microbiology Second Ed., E. H. Lennette, E. H. Spaulding and J. P. Truant Eds., American Society for Microbiology, Washington, DC, 1974.

Data set [3] has as its system Nippostrongylus brasiliensis. The data set can be described thus: Anthelmintic screening against Nippostrongylus brasiliensis. The data set is classed as cell-based. The text has this:
Anthelmintic testing against Nippostrongylus brasiliensis was done using methods outlined in D. C. Jenkins, R. Armitage, and T. S. Carrington, Zeitschrift for Parasitenkunde 63, 261-269 (1980)

Data set [4] is described as follows: LD50 Tests. The settings on record: in vivo; IP single dose, CD-1 male mouse. The text has this:
|(IP single dose - CD-1 Male Mouse)

Data set [5] is described as follows: Lymphocytic Leukemia P388/0 Test. The arrangement: LD20: unit: mg/kg. In kind it is in vivo, mouse (CD2-F1). The settings on record: mouse, in vivo; ip days 1, 5, 9; doses on a mg/kg basis; read-out: highest nontoxic dose where the LD20 was not determined (values in parentheses in LD20 column).
From the text: as §1, §2

The test system of data set [6] is Herpes simplex 1/vero. Kind of data set: Herpes simplex 1/vero plaque inhibition screen. The data set is classed as cell-based. The settings on record: plaque inhibition screen. An excerpt: The column headings labeled Score, Toxicity, and Zone of Inhibition refer to the plaque inhibition screen while the IC50 heading to the plaque reduction screen.
Data set [7] concerns Streptococcus pyogenes. The data set can be described thus: Antibacterial testing against Streptococcus pyogenes (CN10). The data set is classed as cell-based. The settings on record: agar dilution.
From the text: as §3
Background: In agar dilution the substance is mixed into plates at graded concentrations.

For data set [8], the system named is Candida albicans. Kind of data set: Antifungal testing against Candida albicans (CN 1863). In kind it is cell-based, Candida albicans (CN1863). The settings on record: Wellcotest sensitivity test agar plus 7% lysed horse blood. The text has this: Antifungal testing against Candida albicans (CN 1863) was done with slight modifications using a combination of broth and agar dilution assays as outlined in Laboratory Handbook of Medical Mycology, Chapter 6, pages 441-446, M. R. McGinnis, Academic Press, New York, NY, 1980
Medium: Wellcotest ® sensitivity test agar plus 7% lysed horse blood.

Data set [9] relates to lymphocytic leukemia L1210. The data set can be described thus: Lymphocytic Leukemia L1210 Test. The data set is classed as in vivo, mouse (CD2-F1). The settings on record: median survival; ip days 1, 5, 9; dose: 3C 110, 4C 150 mg/kg; active if >125%.
From the text: as §1
The protocol for this test is identical to that for P388/0, except that the number of L1210 cells implanted on day 0 is […]. The mouse CD2-F1 strain is used, and the criterion for activity is T/C×100 >125%.

Data set [10] relates to Lewis lung carcinoma. Kind of data set: Lewis Lung Carcinoma Test. The data set is classed as in vivo, mouse (BD-F1). The settings on record: median survival, iv tumor cells; dosing days 1, 5, 9; dose: 3C 130, 4C 200 mg/kg; active if ≥140%.
From the text: as §1
This tumor arose spontaneously in the lung of a C57B1/6 mouse and is maintained by subcutaneous passage in that strain. The solid tumor is excised aseptically and placed in sterile saline. Pieces of viable tumor tissue are minced finely with scissors and forced through a 200 mesh stainless steel screen to disaggregate the tumor cells into a suspension. 10^6 Viable cells are injected intravenously into the tail vein of BD-F1, mice of the same sex weighing 20±3 g. In each test, several dose levels which bracket the L20 for the compound are evaluated. Ten animals are included in each dose level grup, and twenty animals in the untreated control group. The test compounds are prepared and administered on days 1, 5, and 9 as in the P388/0 protocol. The day of death for each animal is recorded, the median identified for each group and the ratios of median survival time for treated (T)/control (C) groups are calculated. The criterion for activity is T/C×100≥140%.

Data set [11] relates to Colon 38 carcinoma. The data set can be described thus: Colon 38 Carcinoma Test. The data set is classed as in vivo, mouse (C57Bl/6). The settings on record: tumor weight, day 20; 150 mg/kg ip days 1, 5, 9; active if ≤42%.
From the text: as §1
This chemically-induced tumor arose in a C57Bl/6 mouse and is maintained as a solid tumor in that mouse strain. The subcutaneously growing solid tumor is aseptically excised from passage mice and placed in sterile saline. The tumor is trimmed free of visible necrotic and connective tissue, then divided into 2-3 mm cubes. A cube is implanted subcutaneously in the ventral thoracic region with a sterile trochar on day 0. In each test several dose levels which bracket the LD20 for the compound are evaluated. Ten animals are included in each dose level group and thirty animals in the untreated control group. The test compounds are prepared either in physiologic saline containing 0.05% Tween 80 or distilled water containing 5% dextrose and are administered intraperitoneally on days 1, 5 and 9 after tumor implant. […] At day 20, the animals are sacrificed and the longest (L) and shortest (W) dimensions of each tumor measured with vernier calipers. Tumor weight is calculated from the formula [formula] […]

Data set [12] relates to M5076 sarcoma. Kind of data set: M5076 Sarcoma Test. In kind it is in vivo, mouse (B6C3-F1). The settings on record: survival; 110 mg/kg; ip days 1, 5, 9; active if ≥125%.
From the text: as §1
This sarcoma arose as a solid tumor in the ovary of a C57Bl/6 mouse and was subsequently converted to the ascitic form for intraperitoneal use. The protocol for this test is identical with that for P388/0. The B6C3-F1mouse strain is used and the criterion for activity is T/C×100≥125%.

Setting [13] is: immature - free living stages, read-out: MIC.

Counter-ions that a name gives are not always drawn. Like-named read-outs stand apart in the source and are kept apart here.

In [1], `CC(CO)(CO)NCc1c2ccccc2c(Cl)c2ccccc12.Cl` [Example 2A, 2-(((10-chloro-9-anthracenyl)methyl)amino)-2-methyl-1,3-propanediol hydrochloride] registered an LD20 of 556. In addition, the “T/C × 100% (Excluding 30 Day Survivors)” value in data set [1] was “+228%”. Further, the figures for the MIC in data set [2] and in [3] (setting [13]) were 10 µg/mL and at least 50 µg/mL, respectively. In addition, in data set [4], the LD50 was 250 mg/kg.

Consider `CC(CO)(CO)NCc1c2cccc(Cl)c2cc2c(Cl)cccc12.Cl` [Example 10B, 2-(((4,5-dichloro-9-anthracenyl)methyl)amino)-2-methyl-1,3-propanediol hydrochloride], for which, in [5], the MTD was 450 mg/kg. In addition, in data set [1], the “T/C × 100% (Excluding 30 Day Survivors)” value is on record as “+204%”. In addition, the “Zone of Inhibition” value in [6] is recorded as 32.

For `COc1c2ccccc2c(CNC(C)(CO)CO)c2ccccc12.Cl` [Example 13B, 2-(((10-Methoxy-9-anthracenyl)methyl)amino)-2-methyl-1,3-propanediol hydrochloride], in [1], the LD20 is 120 and the “T/C × 100% (Excluding 30 Day Survivors)” value is reported as “+220%”. Also, the “Zone of Inhibition” value in [6] stood at 40. Besides, it took 100 µg/mL to inhibit growth in data set [7] (MIC). In data set [2], this molecule showed an MIC of at most 10 µg/mL.

Take `CSc1c2ccccc2c(CNC(C)(CO)CO)c2ccccc12.Cl` [Example 3B, 2-methyl-2-(((10-methylthio-9-anthracenyl)methyl)amino)-1,3-propanediol hydrochloride]: in data set [1], the LD20 was 120 and the “T/C × 100% (Excluding 30 Day Survivors)” value is “+262%”. For the same molecule, the LD50 in data set [4] amounted to 100 mg/kg.

As to `CC(CO)(CO)NCc1c2ccccc2cc2c(Cl)cccc12.Cl` [Example 11B, 2-(((4-Chloro-9-anthracenyl)methyl)amino)-2-methyl-1,3-propanediol hydrochloride], in [1], the LD20 worked out at 200 and the “T/C × 100% (Excluding 30 Day Survivors)” value is given as “+215%”. In [7], the MIC was at most 10 µg/mL. For the same molecule, the minimal inhibitory concentration (MIC) in data set [2] is at most 10 µg/mL.

On to `Cc1c2ccccc2c(CNC(C)(CO)CO)c2ccccc12` [Example 7, 2-methyl-2-(((10-methyl-9-anthracenyl)methyl)amino)-1,3-propanediol hydrochloride.1/2H2 O], for which, in data set [1], the LD20 was 140 and the “T/C × 100% (Excluding 30 Day Survivors)” value is “+160%”. This molecule also came in with an MIC in data set [3] of 50 µg/mL.

Regarding `CCOCC(CO)(CO)NCc1c2ccccc2cc2ccccc12.Cl` [Example 32C, 2-((9-Anthracenylmethyl)amino)-2-ethoxymethyl-1,3-propanediol hydrochloride], in data set [1], the LD20 came out at 625 and the “T/C × 100% (Excluding 30 Day Survivors)” value is “+130%”. For the same molecule, the “Zone of Inhibition” value in data set [6] worked out at 23.2.

For `CC(CO)(CO)NCc1c2ccccc2c(-n2ccnc2)c2ccccc12` [Example 29B, 2-(((10-(1H-Imidazol-1-yl)-9-anthracenyl)methyl)amino)-2-methyl-1,3-propanediol hydrochloride 11/10 H2 O], in data set [1], the LD20 was determined as 100 and the “T/C × 100% (Excluding 30 Day Survivors)” value is listed as “+235%”. Also, the “Zone of Inhibition” value in data set [6] is given as 32.

In the case of `CC(CO)(CO)NCc1c2ccccc2cc2ccccc12.Cl` [Example 1, 2-((9-Anthracenylmethyl)amino)-2-methyl-1,3-propanediol hydrochloride], in data set [1], the LD20 amounted to 150. Also, the “T/C × 100% (Excluding 30 Day Survivors)” value in data set [1] is reported as “+130%”. In addition, the MIC was above 50 µg/mL in data set [8], below 5 µg/mL in [2] and at least 50 µg/mL in data set [3] (setting [13]). The LD50 in data set [4] turned out to be 160 mg/kg.

Regarding `CC(CO)(CO)NCc1c2ccccc2c(OCCO)c2ccccc12` [Example 25B, 2-(((10-(2-hydroxyethoxy)-9-anthracenyl)methyl)amino)-2-methyl-1,3-propanediol hydrochloride 1/2H2 O 1/10EtOH], in data set [1], the LD20 was 67 and the “T/C × 100% (Excluding 30 Day Survivors)” value was “+300%”. In addition, the LD50 in data set [4] amounted to 110 mg/kg.

With `CC(CO)(CO)NCc1c2ccccc2c(CCCl)c2ccccc12` [Example 4C, 2-(((10-(2-Chloroethyl)-9-anthracenyl)methyl)amino)-2-methyl-1,3-propanediol methanesulfonate], in data set [1], the LD20 came to 130 and the “T/C × 100% (Excluding 30 Day Survivors)” value is on record as “+218%”. The “T/C × 100% Excluding 30 day Survivors” value in data set [9] is on record as “+217%”. Moreover, the “T/C × 100% Excluding 60 day Survivors” value in data set [10] is listed as “+154%”. Besides, the “T/C × 100%” value in data set [11] is given as 38%.

With `CSc1c2ccccc2c(CNC(C)(CO)CO)c2ccccc12` [Example 3C, 2-Methyl-2-(((10-methylthio-9-anthracenyl)methyl)amino)-1,3-propanediolmethanesulfonate], in data set [1], the LD20 was found to be 70 and the “T/C × 100% (Excluding 30 Day Survivors)” value is on record as “+227%”. In data set [9], the “T/C × 100% Excluding 30 day Survivors” value is given as “+194%”. For the same molecule, the “T/C × 100% Excluding 60 day Survivors” value in [10] is reported as “+145%”. In addition, in data set [12], the “T/C × 100%” value is given as “+132%”.

As usually defined, the MIC is the lowest concentration that inhibits growth of the organism. In general, LD50 refers to the dose expected to kill half of the subjects tested.

The values are drawn from patent publication US4803221A, “Anthracene derivatives” (priority 1987, dated 1989).
